Numbers after ± are expanded uncertainties.
Assay: xn = mol fraction of the nth substance listed
Conditions: 298.15 K, 101.3 kPa, Crystal

[O-2].[O-2].[Th+4] [thorium dioxide] + [O-2].[O-2].[U+4]
mass density [kg/m3]
Conditions | x1 = 0.3 | x1 = 0.5 | x1 = 0.6 | x1 = 0.7 | x1 = 0.8 | x1 = 0.9 | x1 = 1
From pellet mass and volume | 8570 ± 1900 | 8600 ± 1700 | 8410 ± 1700 | 9020 ± 1800 | 9240 ± 1800 | 8800 ± 1800 | 9390 ± 1900
X-ray diffraction | 10810 ± 210 | 10810 ± 140 | 10640 ± 130 | 10480 ± 100 | 10350 ± 70 | 10170 ± 50 | 10000 ± 30
buoyancy | 8960 ± 1900 | 8780 ± 1800 | 8690 ± 1800 | 9290 ± 1900 | 9590 ± 1900 | 9210 ± 1800 | 9430 ± 1900

Reference: the NIST ThermoML archive (doi:10.1016/j.tca.2017.04.014)
